Reference: ChEMBL document CHEMBL1145407, “Structure-activity relationships of alpha-ketooxazole inhibitors of fatty acid amide hydrolase” (J Med Chem, 2007)

Key:
[1] = Selectivity for rat recombinant FAAH over KIAA1363
[2] = biological target: T1, Fatty-acid amide hydrolase 1 (Rattus norvegicus, UniProt P97612); test: Inhibition of rat recombinant FAAH expressed in Escherichia coli
T1 sequence (P97612 whole entry): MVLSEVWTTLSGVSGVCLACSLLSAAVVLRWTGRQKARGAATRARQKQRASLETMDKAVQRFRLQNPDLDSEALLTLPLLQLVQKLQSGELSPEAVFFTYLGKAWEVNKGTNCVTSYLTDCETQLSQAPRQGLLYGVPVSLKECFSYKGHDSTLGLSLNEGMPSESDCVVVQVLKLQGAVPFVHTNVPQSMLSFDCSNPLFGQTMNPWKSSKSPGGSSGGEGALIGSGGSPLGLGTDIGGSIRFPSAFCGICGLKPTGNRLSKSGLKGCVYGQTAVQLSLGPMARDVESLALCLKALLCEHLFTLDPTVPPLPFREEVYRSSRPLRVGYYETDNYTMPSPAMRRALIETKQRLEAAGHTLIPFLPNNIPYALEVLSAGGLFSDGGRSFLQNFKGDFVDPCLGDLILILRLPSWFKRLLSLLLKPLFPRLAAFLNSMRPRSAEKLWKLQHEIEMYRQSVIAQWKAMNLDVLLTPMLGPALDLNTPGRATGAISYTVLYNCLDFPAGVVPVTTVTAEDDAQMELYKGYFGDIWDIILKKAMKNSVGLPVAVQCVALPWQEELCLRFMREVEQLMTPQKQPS

[3] = biological target: T2, Fatty-acid amide hydrolase 1 (Homo sapiens, UniProt O00519); test: Inhibition of human FAAH expressed in COS-7 cells
T2 sequence (O00519 whole entry): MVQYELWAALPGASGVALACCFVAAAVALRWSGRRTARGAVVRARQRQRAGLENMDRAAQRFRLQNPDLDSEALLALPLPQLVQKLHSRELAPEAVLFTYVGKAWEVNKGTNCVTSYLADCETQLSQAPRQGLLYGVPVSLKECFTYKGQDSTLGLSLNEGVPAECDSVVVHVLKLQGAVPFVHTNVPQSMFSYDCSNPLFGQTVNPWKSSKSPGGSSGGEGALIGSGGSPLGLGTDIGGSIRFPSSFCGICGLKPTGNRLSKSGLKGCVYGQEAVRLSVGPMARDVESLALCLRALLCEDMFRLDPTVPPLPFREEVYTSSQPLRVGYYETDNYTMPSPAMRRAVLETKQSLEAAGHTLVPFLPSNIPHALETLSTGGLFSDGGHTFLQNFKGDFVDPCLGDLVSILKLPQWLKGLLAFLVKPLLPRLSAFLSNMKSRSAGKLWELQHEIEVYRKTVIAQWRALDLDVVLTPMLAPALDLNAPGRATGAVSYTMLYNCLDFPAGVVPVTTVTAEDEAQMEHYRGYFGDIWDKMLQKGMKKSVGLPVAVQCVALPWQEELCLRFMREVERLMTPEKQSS

[4] = Selectivity for rat recombinant FAAH over TGH

| Compound | Ratio IC50 [1] | Ki [2] | Ki [3] | Ratio IC50 [4] | Selectivity ratio [1] |
| --- | --- | --- | --- | --- | --- |
| O=C(CCCCCCc1cccc(Cl)c1Cl)c1ncc(-c2ccccn2)o1 | > 14000 | 0.9 nM | 1.2 nM | 70 | – |
| Cc1ccccc1CCCCCCC(=O)c1ncc(-c2ccccn2)o1 | > 3300 | 3 nM | – | 100 | – |
| O=C(CCCCCCc1cccnc1)c1ncc(-c2ccccn2)o1 | > 5000 | 32 nM | – | 50 | – |
| O=C(CCCCCCc1ccc(F)cc1)c1ncc(-c2ccccn2)o1 | > 5000 | 3.2 nM | – | 50 | – |
| CSc1ccccc1CCCCCCC(=O)c1ncc(-c2ccccn2)o1 | > 3300 | 3.3 nM | – | 300 | – |
| O=C(CCCCCCc1ccccc1Cl)c1ncc(-c2ccccn2)o1 | > 5000 | 1.9 nM | – | 30 | – |
| CCCCCCc1ccc(CCCCCCC(=O)c2ncc(-c3ccccn3)o2)cc1 | > 3300 | 6.7 nM | – | 1000 | – |
| COC(=O)c1ccccc1CCCCCCC(=O)c1ncc(-c2ccccn2)o1 | > 250000 | 1 nM | – | 25000 | – |
| CCCCCCc1cccc(CCCCCCC(=O)c2ncc(-c3ccccn3)o2)c1 | – | 15 nM | – | 250 | > 1250 |
| O=C(CCCCCCc1ccccc1F)c1ncc(-c2ccccn2)o1 | > 3300 | 1.7 nM | – | 17 | – |
| Nc1ccc(CCCCCCC(=O)c2ncc(-c3ccccn3)o2)cc1 | > 25000 | 3 nM | – | 750 | – |
| Cc1ccc(CCCCCCC(=O)c2ncc(-c3ccccn3)o2)cc1 | > 2500 | 2.8 nM | – | 125 | – |
| O=C(CCCCCCc1cccc(C(F)(F)F)c1)c1ncc(-c2ccccn2)o1 | > 5000 | 1 nM | – | 10 | – |
